Source: PubChem BioAssay (NCI)
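Dose response: 5 concentrations. Exposure: 48 h. Format: 96-well plates. Endpoint: linear interpolation; highest concentration if not reached. Here, GI50 denotes the concentration required for 50% inhibition of growth. TGI denotes the concentration required for complete inhibition of growth.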

Experiments:
Experiment in all cases: DTP human tumour cell line panel, 48 h
OVCAR-5 ovarian = tested on: OVCAR-5 ovarian
DMS 273 small cell lung = tested on: DMS 273 small cell lung
MDA-MB-435 = tested on: MDA-MB-435
RPMI-8226 leukemia = tested on: RPMI-8226 leukemia
UACC-257 melanoma = tested on: UACC-257 melanoma
SR leukemia = tested on: SR leukemia
KM20L2 colon = tested on: KM20L2 colon
LOX IMVI melanoma = tested on: LOX IMVI melanoma
HOP-18 NSCLC = tested on: HOP-18 NSCLC
TK-10 renal = tested on: TK-10 renal

| Structure (SMILES) | TGI (OVCAR-5 ovarian) [µM] | TGI (DMS 273 small cell lung) [µM] | TGI (MDA-MB-435) [µM] | TGI (RPMI-8226 leukemia) [µM] | TGI (UACC-257 melanoma) [µM] | TGI (SR leukemia) [µM] | TGI (KM20L2 colon) [µM] | TGI (LOX IMVI melanoma) [µM] | TGI (HOP-18 NSCLC) [µM] | TGI (TK-10 renal) [µM] | GI50 (OVCAR-5 ovarian) [µM] | GI50 (DMS 273 small cell lung) [µM] | GI50 (RPMI-8226 leukemia) [µM] | GI50 (UACC-257 melanoma) [µM] | GI50 (SR leukemia) [µM] | GI50 (KM20L2 colon) [µM] | GI50 (LOX IMVI melanoma) [µM] | GI50 (HOP-18 NSCLC) [µM] | GI50 (TK-10 renal) [µM] |
| --- | --- | --- | --- | --- | --- | --- | --- | --- | --- | --- | --- | --- | --- | --- | --- | --- | --- | --- | --- |
| CCCC(=O)OC1C(C(O)CO)OC2OC(C)(C)OC21 (centres undefined) | > 100 | > 100 | > 100 | > 100 | > 100 | > 100 | > 100 | > 100 | > 100 | > 100 | – | – | – | – | – | – | – | – | – |
| N#C/C(=C\c1ccc(O)c(O)c1)C(N)=S | > 100 | > 100 | – | > 100 | 97.7 | > 100 | > 100 | > 100 | > 100 | > 100 | – | – | – | – | – | – | – | – | – |
| CCCCCCCCCCCC(=O)OCC1OC(n2cc(F)c(=O)[nH]c2=O)C(NC(=O)OCc2ccccc2)C(OC(=O)CCCCCCCCCCC)C1O (centres undefined) | > 100 | > 100 | – | > 100 | > 100 | > 100 | > 100 | > 100 | > 100 | > 100 | – | – | – | – | – | – | – | – | – |
| C=CCC[CH2][Sn]([c]1ccccc1)([c]1ccccc1)[c]1ccccc1 | 2.35 | 3.03 | – | 4.37 | 3.33 | 5.28 | 3.36 | 2.38 | 4.51 | 3.09 | 1.12 | 1.58 | 1.65 | 1.87 | 0.572 | 1.83 | 1.16 | 2.59 | 1.6 |
| Cc1ccc(NC(=O)C(=O)C(C#N)c2ccccc2C)cc1C (centres undefined) | > 100 | > 100 | – | > 100 | > 100 | > 100 | > 100 | > 55.3 | > 100 | > 100 | – | – | – | – | – | – | – | – | – |
| C/C(=N\NS(=O)(=O)c1ccccc1)c1ccc(Cl)c(Cl)c1 | > 100 | > 100 | – | > 100 | > 100 | > 100 | > 100 | > 100 | > 100 | > 100 | – | – | – | – | – | – | – | – | – |
| Cc1ccc(N=Cc2ccc3c(c2)OCO3)cc1C | > 100 | > 100 | – | > 100 | – | > 100 | > 100 | > 100 | > 100 | > 100 | – | – | – | – | – | – | – | – | – |
| O=C(N/C(=C\c1ccc2c(c1)OCO2)c1nc2ccccc2[nH]1)c1ccccc1 | > 100 | > 100 | – | 83.9 | 35.8 | 72.3 | > 89.7 | > 100 | > 100 | 92.3 | – | – | – | – | – | – | – | – | – |
| O=C(NCCCCCCNC(=O)n1cc(F)c(=O)[nH]c1=O)NCCCOCCOCCOCCOCCOCCOCCOCCOCCOCCOCCOCCOCCOCCOCCOCCOCCOCCOCCOCCOCCOCCCNC(=O)C(O)C(O)C(O)C(O)CO (centres undefined) | > 100 | > 100 | > 100 | > 100 | > 100 | > 100 | > 100 | > 100 | > 100 | > 100 | – | – | – | – | – | – | – | – | – |
| CC1(C)C(=NNC(=O)C[N+](C)(C)C)C(C)(C)C1=NNC(=O)C[N+](C)(C)C | > 100 | > 100 | – | – | > 100 | > 100 | > 100 | > 100 | > 100 | > 100 | – | – | – | – | – | – | – | – | – |
